≈ marks a conversion by molar mass, not a printed value. Read-outs that look alike come from different tables or passages of the source.
Experiments:
[1] = system: intracellular S. flexneri 5a M90T in TC7 cells; assay: microbe, parasite or virus in culture; type: cell-based, Shigella flexneri; details: for IC50: Shigella flexneri, TC7, 14 h; for Fluorescence intensity (RFU), Mean, 2 x MIC / Fluorescence intensity (RFU), Mean, 4 x MIC / Fluorescence intensity (RFU), Mean, 8 x MIC / Fluorescence intensity (RFU), Mean, 16 x MIC / Fluorescence intensity (RFU), Mean, 32 x MIC / Fluorescence intensity (RFU), Mean, MIC / Fluorescence intensity (RFU), Mean, 0.25 x MIC / Fluorescence intensity (RFU), Mean, 0.5 x MIC: TC7 cells infected with GFP-expressing S. flexneri, 14 h treatment
E. coli CFT073 (UPEC) = assay: MIC, standard microdilution assay, growing UPEC; type: cell-based, Escherichia coli; details: Escherichia coli
Method in brief: (§1)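 MICs come from microdilution in CA-MHB/40 mM HEPES pH 7.4 for the UPEC, Pseudomonas and Staphylococcus strains, and in TSB for Shigella. UPEC also tested in LPM/30 mM MES pH 5.5.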

non-growing UPEC CFT073 = assay: Dilution-regrowth assay (screen, hit validation, dose-response) on stationary-phase UPEC; type: cell-based, Escherichia coli; details: for EC50: Escherichia coli; for Regrowth, OD600 at 6h or 8h after dilution into drug-free medium: average
Method in brief: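 Regrowth (OD600 after 6 h, 37 °C) of diluted non-growing CFT073, following 24 h compound treatment of 24 h stationary cultures, defines activity relative to untreated control. Screen at 20 µM, validation at 20, 10, 5 µM (duplicates), dose–response in three biological replicates fitted by five-parameter logistic.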

P. aeruginosa DSM1117 = assay: MIC, standard microdilution assay, growing P. aeruginosa; type: cell-based, Pseudomonas aeruginosa; details: Pseudomonas aeruginosa
Method in brief: as §1

S. flexneri 5a M90T = assay: MIC in tryptic soy broth, S. flexneri; type: cell-based, Shigella flexneri; details: Shigella flexneri, 5AM90T, read-out: MIC (μM) TSB
Method in brief: as §1

S. aureus DSM2569 = assay: MIC, standard microdilution assay, growing S. aureus; type: cell-based, Staphylococcus aureus; details: Staphylococcus aureus
Method in brief: as §1

[2] = E. coli, pH 7.4, CA-MHB, read-out: MIC (μM) CA-MHB
[3] = E. coli, pH 7.4, regrowth delay of non-growing bacteria, 1:4 CA-MHB, 24 h treatment, OD600 6 h after 2500-fold dilution, read-out: EC50
[4] = DSM1117, P. aeruginosa, CA-MHB pH 7.4, read-out: MIC (μM) CA-MHB
[5] = DSM2569, S. aureus, CA-MHB pH 7.4, read-out: MIC (μM) CA-MHB

CO[C@@]12[C@H](COC(N)=O)C3=C(C(=O)C(C)=C(N)C3=O)N1C[C@@H]1N[C@@H]12 [Mitomycin C]
IC50 [1]: 451 nM
Fluorescence intensity (RFU), Mean, 2 x MIC [1]: 2991.58 RFU
Fluorescence intensity (RFU), Mean, 4 x MIC [1]: 2579.31 RFU
Fluorescence intensity (RFU), Mean, 8 x MIC [1]: 2274.5 RFU
Fluorescence intensity (RFU), Mean, 16 x MIC [1]: 1986.92 RFU
Fluorescence intensity (RFU), Mean, 32 x MIC [1]: 1617.58 RFU
Fluorescence intensity (RFU), Mean, MIC [1]: 3708.94 RFU
MIC (E. coli CFT073 (UPEC); pH 5.5): 0.5 µM (≈ 0.167 µg/mL)
MIC (E. coli CFT073 (UPEC); pH 7.4, read-out: MIC (μM) CA-MHB): 2 µM (≈ 0.669 µg/mL)
Regrowth, OD600 at 6h or 8h after dilution into drug-free medium (average) (non-growing UPEC CFT073; E. coli in 1:4 CA-MHB (pH 7.4), drug concentration 0.25): 0.575
Regrowth, OD600 at 6h or 8h after dilution into drug-free medium (average) (non-growing UPEC CFT073; E. coli in 1:4 CA-MHB (pH 7.4), drug concentration 0.5): 0.556
Regrowth, OD600 at 6h or 8h after dilution into drug-free medium (average) (non-growing UPEC CFT073; E. coli in 1:4 CA-MHB (pH 7.4), drug concentration 1): 0.551
Regrowth, OD600 at 6h or 8h after dilution into drug-free medium (average) (non-growing UPEC CFT073; E. coli in 1:4 CA-MHB (pH 7.4), drug concentration 2.5): 0.482
Regrowth, OD600 at 6h or 8h after dilution into drug-free medium (average) (non-growing UPEC CFT073; E. coli in 1:4 CA-MHB (pH 7.4), drug concentration 5): 0.179
Regrowth, OD600 at 6h or 8h after dilution into drug-free medium (average) (non-growing UPEC CFT073; E. coli in 1:4 CA-MHB (pH 7.4), drug concentration 10): 0.065
Regrowth, OD600 at 6h or 8h after dilution into drug-free medium (average) (non-growing UPEC CFT073; E. coli in 1:4 CA-MHB (pH 7.4), drug concentration 30): 0.063
Regrowth, OD600 at 6h or 8h after dilution into drug-free medium (average) (non-growing UPEC CFT073; E. coli in LPM (pH 5.5), drug concentration 0.25): 0.474
Regrowth, OD600 at 6h or 8h after dilution into drug-free medium (average) (non-growing UPEC CFT073; E. coli in LPM (pH 5.5), drug concentration 0.5): 0.440
Regrowth, OD600 at 6h or 8h after dilution into drug-free medium (average) (non-growing UPEC CFT073; E. coli in LPM (pH 5.5), drug concentration 1): 0.294
Regrowth, OD600 at 6h or 8h after dilution into drug-free medium (average) (non-growing UPEC CFT073; E. coli in LPM (pH 5.5), drug concentration 2.5): 0.140
Regrowth, OD600 at 6h or 8h after dilution into drug-free medium (average) (non-growing UPEC CFT073; E. coli in LPM (pH 5.5), drug concentration 5): 0.136
Regrowth, OD600 at 6h or 8h after dilution into drug-free medium (average) (non-growing UPEC CFT073; E. coli in LPM (pH 5.5), drug concentration 10): 0.136
Regrowth, OD600 at 6h or 8h after dilution into drug-free medium (average) (non-growing UPEC CFT073; E. coli in LPM (pH 5.5), drug concentration 30): 0.134
EC50 (non-growing UPEC CFT073; pH 5.5): 706 nM
EC50 (non-growing UPEC CFT073; pH 5.5, read-out: EC50 (regrowth inhibition curve, Fig. S4)): 690 nM
EC50 (non-growing UPEC CFT073; pH 7.4): 3680 nM
EC50 (non-growing UPEC CFT073; pH 7.4, read-out: EC50 (regrowth inhibition curve, Fig. S4)): 3770 nM
activity against non-growing UPEC in LPM (pH 5.5) compared to 1:4 CA-MHB (pH 7.4) (non-growing UPEC CFT073; regrowth delay and killing, Figs. 2 and 3): potentiated by the low pH
MIC (P. aeruginosa DSM1117; DSM1117, pH 7.4, read-out: MIC (μM) 1:4 CA-MHB): 10 µM (≈ 3.34 µg/mL)
MIC (P. aeruginosa DSM1117; DSM1117, pH 7.4, read-out: MIC (μM) CA-MHB): 10 µM (≈ 3.34 µg/mL)
MIC (S. flexneri 5a M90T): 1 µM (≈ 0.334 µg/mL)
MIC (S. aureus DSM2569; DSM2569, pH 7.4, read-out: MIC (μM) CA-MHB): 0.25 µM (≈ 0.0836 µg/mL)

C[C@H]1NCc2cc(-c3ccc4c(=O)c(C(=O)O)cn(C5CC5)c4c3OC(F)F)ccc21 [Garenoxacin]
IC50 [1]: 31 nM
Fluorescence intensity (RFU), Mean, 0.25 x MIC [1]: 6643.04 RFU
Fluorescence intensity (RFU), Mean, 0.5 x MIC [1]: 5273 RFU
Fluorescence intensity (RFU), Mean, 2 x MIC [1]: 3944.5 RFU
Fluorescence intensity (RFU), Mean, 4 x MIC [1]: 3336.42 RFU
Fluorescence intensity (RFU), Mean, 8 x MIC [1]: 2806.31 RFU
Fluorescence intensity (RFU), Mean, 16 x MIC [1]: 2331.56 RFU
Fluorescence intensity (RFU), Mean, 32 x MIC [1]: 1840.28 RFU
Fluorescence intensity (RFU), Mean, MIC [1]: 3888.86 RFU
MIC (E. coli CFT073 (UPEC); E. coli, LPM pH 5.5, read-out: MIC): 0.125 µM (≈ 0.0533 µg/mL)
MIC (E. coli CFT073 (UPEC); [2]): 0.125 µM (≈ 0.0533 µg/mL)
EC50 (non-growing UPEC CFT073; [3]): 2190 nM
MIC (P. aeruginosa DSM1117; DSM1117, P. aeruginosa, 1:4 diluted CA-MHB pH 7.4, read-out: MIC (μM) 1:4 CA-MHB): 4 µM (≈ 1.71 µg/mL)
MIC (P. aeruginosa DSM1117; [4]): 4 µM (≈ 1.71 µg/mL)
MIC (S. flexneri 5a M90T): 0.0625 µM (≈ 0.0267 µg/mL)
MIC (S. aureus DSM2569; [5]): 0.125 µM (≈ 0.0533 µg/mL)

COc1c(N2C[C@@H]3CCCN[C@@H]3C2)c(F)cc2c(=O)c(C(=O)O)cn(C3CC3)c12 [Moxifloxacin]
IC50 [1]: 35 nM
Fluorescence intensity (RFU), Mean, 0.25 x MIC [1]: 7400.12 RFU
Fluorescence intensity (RFU), Mean, 0.5 x MIC [1]: 5542.67 RFU
Fluorescence intensity (RFU), Mean, 2 x MIC [1]: 3672.56 RFU
Fluorescence intensity (RFU), Mean, 4 x MIC [1]: 2897.78 RFU
Fluorescence intensity (RFU), Mean, 8 x MIC [1]: 2156.25 RFU
Fluorescence intensity (RFU), Mean, 16 x MIC [1]: 1789.81 RFU
Fluorescence intensity (RFU), Mean, 32 x MIC [1]: 1608.56 RFU
Fluorescence intensity (RFU), Mean, MIC [1]: 3564.03 RFU
MIC (E. coli CFT073 (UPEC); [2]): 0.125 µM (≈ 0.0502 µg/mL)
Regrowth, OD600 at 6h or 8h after dilution into drug-free medium (non-growing UPEC CFT073; E. coli in 1:4 CA-MHB (pH 7.4), concentration 0.25): 0.565
Regrowth, OD600 at 6h or 8h after dilution into drug-free medium (non-growing UPEC CFT073; E. coli in 1:4 CA-MHB (pH 7.4), concentration 0.5): 0.481
Regrowth, OD600 at 6h or 8h after dilution into drug-free medium (non-growing UPEC CFT073; E. coli in 1:4 CA-MHB (pH 7.4), concentration 1): 0.120
Regrowth, OD600 at 6h or 8h after dilution into drug-free medium (non-growing UPEC CFT073; E. coli in 1:4 CA-MHB (pH 7.4), concentration 2.5): 0.067
Regrowth, OD600 at 6h or 8h after dilution into drug-free medium (non-growing UPEC CFT073; E. coli in 1:4 CA-MHB (pH 7.4), concentration 5): 0.066
Regrowth, OD600 at 6h or 8h after dilution into drug-free medium (non-growing UPEC CFT073; E. coli in 1:4 CA-MHB (pH 7.4), concentration 10): 0.068
Regrowth, OD600 at 6h or 8h after dilution into drug-free medium (non-growing UPEC CFT073; E. coli in 1:4 CA-MHB (pH 7.4), concentration 30): 0.065
Regrowth, OD600 at 6h or 8h after dilution into drug-free medium (non-growing UPEC CFT073; E. coli in LPM (pH 5.5), concentration 0.25): 0.577
Regrowth, OD600 at 6h or 8h after dilution into drug-free medium (non-growing UPEC CFT073; E. coli in LPM (pH 5.5), concentration 0.5): 0.563
Regrowth, OD600 at 6h or 8h after dilution into drug-free medium (non-growing UPEC CFT073; E. coli in LPM (pH 5.5), concentration 1): 0.570
Regrowth, OD600 at 6h or 8h after dilution into drug-free medium (non-growing UPEC CFT073; E. coli in LPM (pH 5.5), concentration 2.5): 0.577
Regrowth, OD600 at 6h or 8h after dilution into drug-free medium (non-growing UPEC CFT073; E. coli in LPM (pH 5.5), concentration 5): 0.574
Regrowth, OD600 at 6h or 8h after dilution into drug-free medium (non-growing UPEC CFT073; E. coli in LPM (pH 5.5), concentration 10): 0.567
Regrowth, OD600 at 6h or 8h after dilution into drug-free medium (non-growing UPEC CFT073; E. coli in LPM (pH 5.5), concentration 30): 0.530
EC50 (non-growing UPEC CFT073; [3]): 649 nM
MIC (P. aeruginosa DSM1117; [4]): 8 µM (≈ 3.21 µg/mL)
MIC (S. flexneri 5a M90T): 0.0625 µM (≈ 0.0251 µg/mL)
MIC (S. aureus DSM2569; [5]): 0.125 µM (≈ 0.0502 µg/mL)
